Test results as given in the supplement of paper PMC10307832.

How the values were obtained:
Assay in all cases: relative viability (nuclei count vs DMSO), 5 days (fraction); higher = more cells survive
Avagacestat = compound: NC(=O)[C@@H](CCC(F)(F)F)N(Cc1ccc(-c2ncon2)cc1F)S(=O)(=O)c1ccc(Cl)cc1 [Avagacestat]
How it was run: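 Five library-drug doses, separated by factors of √10, were pinned into 1536-well plates holding lung cancer cell lines after an overnight stay at 37 °C. Cells were fixed, permeabilised and Hoechst-stained in one step after 5 days without medium change, then imaged at 4×. Viability compares treated-well with vehicle-well nuclei, counted in MetaXpress, as a median across plates. Passing plates had control CV below 25% and at least one doubling.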

Avagacestat + Trametinib = compound: NC(=O)[C@@H](CCC(F)(F)F)N(Cc1ccc(-c2ncon2)cc1F)S(=O)(=O)c1ccc(Cl)cc1 [Avagacestat] + CC(=O)Nc1cccc(-n2c(=O)n(C3CC3)c(=O)c3c(Nc4ccc(I)cc4F)n(C)c(=O)c(C)c32)c1 [Trametinib] (partner 0.02 µM)
How it was run: (§1)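 Relative viability was taken as the ratio of nuclei in treated wells to nuclei in vehicle wells. Lung cancer cell lines in 1536-well plates received compounds by pin tool one day after seeding, either one drug alone or a fixed anchor-drug dose plus five library-drug doses (not always all listed) in √10 steps. Nuclei were counted on 4× images after 5 days of treatment, and values are medians of duplicate plates.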

[1] = compound: NC(=O)[C@@H](CCC(F)(F)F)N(Cc1ccc(-c2ncon2)cc1F)S(=O)(=O)c1ccc(Cl)cc1 [Avagacestat] + CC(=O)c1c(C)c2cnc(Nc3ccc(N4CCNCC4)cn3)nc2n(C2CCCC2)c1=O [Palbociclib] (partner 0.5 µM)
How it was run: as §1

Avagacestat + Luminespib = compound: NC(=O)[C@@H](CCC(F)(F)F)N(Cc1ccc(-c2ncon2)cc1F)S(=O)(=O)c1ccc(Cl)cc1 [Avagacestat] + CCNC(=O)c1noc(-c2cc(C(C)C)c(O)cc2O)c1-c1ccc(CN2CCOCC2)cc1 [Luminespib] (partner 0.01 µM)
How it was run: as §1

Avagacestat + Foretinib = compound: NC(=O)[C@@H](CCC(F)(F)F)N(Cc1ccc(-c2ncon2)cc1F)S(=O)(=O)c1ccc(Cl)cc1 [Avagacestat] + COc1cc2c(Oc3ccc(NC(=O)C4(C(=O)Nc5ccc(F)cc5)CC4)cc3F)ccnc2cc1OCCCN1CCOCC1 [Foretinib] (partner 0.25 µM)
How it was run: as §1

Avagacestat + OSI-027 = compound: NC(=O)[C@@H](CCC(F)(F)F)N(Cc1ccc(-c2ncon2)cc1F)S(=O)(=O)c1ccc(Cl)cc1 [Avagacestat] + COc1cccc2cc(-c3nc([C@H]4CC[C@H](C(=O)O)CC4)n4ncnc(N)c34)[nH]c12 [OSI-027] (partner 0.5 µM)
How it was run: as §1

Avagacestat + Tozasertib = compound: NC(=O)[C@@H](CCC(F)(F)F)N(Cc1ccc(-c2ncon2)cc1F)S(=O)(=O)c1ccc(Cl)cc1 [Avagacestat] + Cc1cc(Nc2cc(N3CCN(C)CC3)nc(Sc3ccc(NC(=O)C4CC4)cc3)n2)n[nH]1 [Tozasertib] (partner 0.1 µM)
How it was run: as §1

Avagacestat + Dasatinib = compound: NC(=O)[C@@H](CCC(F)(F)F)N(Cc1ccc(-c2ncon2)cc1F)S(=O)(=O)c1ccc(Cl)cc1 [Avagacestat] + Cc1nc(Nc2ncc(C(=O)Nc3c(C)cccc3Cl)s2)cc(N2CCN(CCO)CC2)n1 [Dasatinib] (partner 0.075 µM)
How it was run: as §1

Avagacestat + Phenformin = compound: NC(=O)[C@@H](CCC(F)(F)F)N(Cc1ccc(-c2ncon2)cc1F)S(=O)(=O)c1ccc(Cl)cc1 [Avagacestat] + N=C(N)NC(=N)NCCc1ccccc1 [Phenformin] (partner 250 µM)
How it was run: as §1

Avagacestat + AZD7762 = compound: NC(=O)[C@@H](CCC(F)(F)F)N(Cc1ccc(-c2ncon2)cc1F)S(=O)(=O)c1ccc(Cl)cc1 [Avagacestat] + NC(=O)Nc1cc(-c2cccc(F)c2)sc1C(=O)N[C@H]1CCCNC1 [AZD7762] (partner 0.2 µM)
How it was run: as §1

Avagacestat + Pemetrexed = compound: NC(=O)[C@@H](CCC(F)(F)F)N(Cc1ccc(-c2ncon2)cc1F)S(=O)(=O)c1ccc(Cl)cc1 [Avagacestat] + Nc1nc2[nH]cc(CCc3ccc(C(=O)N[C@@H](CCC(=O)O)C(=O)O)cc3)c2c(=O)[nH]1 [Pemetrexed] (partner 0.2 µM)
How it was run: as §1

Avagacestat + Decitabine = compound: NC(=O)[C@@H](CCC(F)(F)F)N(Cc1ccc(-c2ncon2)cc1F)S(=O)(=O)c1ccc(Cl)cc1 [Avagacestat] + Nc1ncn([C@H]2C[C@H](O)[C@@H](CO)O2)c(=O)n1 [Decitabine] (partner 2 µM)
How it was run: as §1

Avagacestat + Vorinostat = compound: NC(=O)[C@@H](CCC(F)(F)F)N(Cc1ccc(-c2ncon2)cc1F)S(=O)(=O)c1ccc(Cl)cc1 [Avagacestat] + O=C(CCCCCCC(=O)Nc1ccccc1)NO [Vorinostat] (partner 1 µM)
How it was run: as §1

Avagacestat + Olaparib = compound: NC(=O)[C@@H](CCC(F)(F)F)N(Cc1ccc(-c2ncon2)cc1F)S(=O)(=O)c1ccc(Cl)cc1 [Avagacestat] + O=C(c1cc(Cc2n[nH]c(=O)c3ccccc23)ccc1F)N1CCN(C(=O)C2CC2)CC1 [Olaparib] (partner 8 µM)
How it was run: as §1

**Q.** What does the source list for SW 900?
**A.** relative viability (Avagacestat; 0.08 µM): 1.07; relative viability (Avagacestat; 0.253 µM): 1.04; relative viability (Avagacestat; 0.8 µM): 1.06; relative viability (Avagacestat; 2.53 µM): 0.967; relative viability (Avagacestat; 8 µM): 0.979; relative viability (Avagacestat + Trametinib; first compound 0.08 µM): 1.08; relative viability (Avagacestat + Trametinib; first compound 0.253 µM): 0.82; relative viability (Avagacestat + Trametinib; first compound 0.8 µM): 0.872; relative viability (Avagacestat + Trametinib; first compound 2.53 µM): 0.763; relative viability (Avagacestat + Trametinib; first compound 8 µM): 0.713; relative viability ([1]; first compound 0.08 µM): 0.627; relative viability ([1]; first compound 0.253 µM): 0.618; relative viability ([1]; first compound 0.8 µM): 0.645; relative viability ([1]; first compound 2.53 µM): 0.453; relative viability ([1]; first compound 8 µM): 0.505; relative viability (Avagacestat + Luminespib; first compound 0.08 µM): 0.176; relative viability (Avagacestat + Luminespib; first compound 0.253 µM): 0.168; relative viability (Avagacestat + Luminespib; first compound 0.8 µM): 0.173; relative viability (Avagacestat + Luminespib; first compound 2.53 µM): 0.153; relative viability (Avagacestat + Luminespib; first compound 8 µM): 0.177; relative viability (Avagacestat + Foretinib; first compound 0.08 µM): 1.38; relative viability (Avagacestat + Foretinib; first compound 0.253 µM): 1.32; relative viability (Avagacestat + Foretinib; first compound 0.8 µM): 0.967; relative viability (Avagacestat + Foretinib; first compound 2.53 µM): 0.612; relative viability (Avagacestat + Foretinib; first compound 8 µM): 1.2; relative viability (Avagacestat + OSI-027; first compound 0.08 µM): 0.756; relative viability (Avagacestat + OSI-027; first compound 0.253 µM): 0.731; relative viability (Avagacestat + OSI-027; first compound 0.8 µM): 0.581; relative viability (Avagacestat + OSI-027; first compound 2.53 µM): 0.573; relative viability (Avagacestat + OSI-027; first compound 8 µM): 0.653; relative viability (Avagacestat + Tozasertib; first compound 0.08 µM): 0.726; relative viability (Avagacestat + Tozasertib; first compound 0.253 µM): 0.637; relative viability (Avagacestat + Tozasertib; first compound 0.8 µM): 0.578; relative viability (Avagacestat + Tozasertib; first compound 2.53 µM): 0.487; relative viability (Avagacestat + Tozasertib; first compound 8 µM): 0.353; relative viability (Avagacestat + Dasatinib; first compound 0.08 µM): 0.821; relative viability (Avagacestat + Dasatinib; first compound 0.253 µM): 0.599; relative viability (Avagacestat + Dasatinib; first compound 0.8 µM): 0.547; relative viability (Avagacestat + Dasatinib; first compound 2.53 µM): 0.848; relative viability (Avagacestat + Dasatinib; first compound 8 µM): 0.558; relative viability (Avagacestat + Phenformin; first compound 0.08 µM): 0.781; relative viability (Avagacestat + Phenformin; first compound 0.253 µM): 0.641; relative viability (Avagacestat + Phenformin; first compound 0.8 µM): 0.543; relative viability (Avagacestat + Phenformin; first compound 2.53 µM): 0.571; relative viability (Avagacestat + Phenformin; first compound 8 µM): 0.627; relative viability (Avagacestat + AZD7762; first compound 0.08 µM): 0.847; relative viability (Avagacestat + AZD7762; first compound 0.253 µM): 0.807; relative viability (Avagacestat + AZD7762; first compound 0.8 µM): 0.606; relative viability (Avagacestat + AZD7762; first compound 2.53 µM): 0.571; relative viability (Avagacestat + AZD7762; first compound 8 µM): 0.466; relative viability (Avagacestat + Pemetrexed; first compound 0.08 µM): 0.485; relative viability (Avagacestat + Pemetrexed; first compound 0.253 µM): 0.507; relative viability (Avagacestat + Pemetrexed; first compound 0.8 µM): 0.474; relative viability (Avagacestat + Pemetrexed; first compound 2.53 µM): 0.486; relative viability (Avagacestat + Pemetrexed; first compound 8 µM): 0.482; relative viability (Avagacestat + Decitabine; first compound 0.08 µM): 0.376; relative viability (Avagacestat + Decitabine; first compound 0.253 µM): 0.401; relative viability (Avagacestat + Decitabine; first compound 0.8 µM): 0.422; relative viability (Avagacestat + Decitabine; first compound 2.53 µM): 0.464; relative viability (Avagacestat + Decitabine; first compound 8 µM): 0.41; relative viability (Avagacestat + Vorinostat; first compound 0.08 µM): 0.502; relative viability (Avagacestat + Vorinostat; first compound 0.253 µM): 0.828; relative viability (Avagacestat + Vorinostat; first compound 0.8 µM): 0.554; relative viability (Avagacestat + Vorinostat; first compound 2.53 µM): 0.535; relative viability (Avagacestat + Vorinostat; first compound 8 µM): 0.641; relative viability (Avagacestat + Olaparib; first compound 0.08 µM): 1.04; relative viability (Avagacestat + Olaparib; first compound 0.253 µM): 0.96; relative viability (Avagacestat + Olaparib; first compound 0.8 µM): 0.982; relative viability (Avagacestat + Olaparib; first compound 2.53 µM): 0.634; relative viability (Avagacestat + Olaparib; first compound 8 µM): 0.896
